Assay [1] has as its system innate immunity gene expression in kidney. Kind of assay: Inhibition of activated ALPK1 in kidney: innate immunity gene expression after ALPK1 agonist. Format: in vivo, Sprague-Dawley (SD) rats. The settings on record: SD rats, 4, 10 or 25 mg/kg oral 2 hours prior to agonist ip, kidney 3 hours after agonist, RT-PCR. The protocol:
FIG. 2: Treatment groups were administered 4, 10 or 25 mg/kg of the ALPK1 inhibitor A0176 2 hours prior to the agonist, D-glycero-D-manno-6-fluoro-heptose-1β-S-ADP.
To test the effects of the ALPK1 inhibitors on the expression of innate immunity genes activated upon ALPK1 activation, SD rats were orally administered ALPK1 inhibitors followed by activation of innate immunity genes by intraperitoneal administration of an ALPK1 agonist, D-glycero-D-manno-6-fluoro-heptose-1β-S-ADP. Kidney tissue was harvested and assayed for gene expression. Briefly, Twenty male Sprague-Dawley (SD) rats were randomly divided into five groups. The normal group was given vehicle (0.5% MC) orally. After 2 hours, PBS was given by ip injection. The control group was given vehicle (0.5% MC) orally. After 2 hours, D-glycero-D-manno-6-fluoro-heptose-1β-S-ADP (50 μpk) was given by ip injection. The other 3 groups were given the ALPK1 inhibitor A0176 (4, 10 and 25 mpk) orally. After 2 hours, D-glycero-D-manno-6-fluoro-heptose-1β-S-ADP (50 μpk) was given by ip injection. […] Quantitative PCR was conducted using AceQ qPCR SYBR Green Master Mix Kit (Vazyme, Nanjing, China) on the QuantStudio 5 applied biosystems (Thermo scientific, USA). The relative mRNA levels were calculated using the 2-ΔΔCT method, and HPRT was used as a reference for gene expression normalization. […]

The test system of assay [2] is polymicrobial sepsis induced by cecal ligation and puncture. Kind of assay: Sepsis induced acute kidney injury model (cecal ligation and puncture, CLP). The note with it: rat CLP, 20 mg/kg 2 hours prior to surgery.
Experimental: Survival was recorded over the following 24 hours.
24 hours post-surgery, the kidneys were collected for gene expression analysis by Q-PCR.
24 hours post-surgery, plasma MCP-1 concentration was measured by ELISA.
We used a rat CLP model to evaluate the effects of compounds described here on sepsis. Briefly, the rat cecum was ligated with sterile silk thread, and then cecum was punctured twice with a needle, gently squeezed to express a small amount of fecal material, then the abdominal incision was closed. […] In addition, at 24 hours post-surgery, the kidneys were collected for gene expression analysis by Q-PCR and plasma was collected for measurement of plasma MCP-1 concentrations by ELISA.

As for `C#C[C@@](C)(c1ccc(Cl)cc1)c1csc(NC(=O)NCCO)n1` [Example A0176], in assay [1], the “kidney gene expression of innate immunity genes (MCP-1 (CCL-2), CCL-7, CXCL-1, CXCL-10, IL-1p, IL-6 mRNA)” value was “dose-dependent inhibition of gene expression levels”. Moreover, in assay [2] (kidneys 24 hours post-surgery, Q-PCR), the “kidney proinflammatory gene expression (IL6, TNFa, IL-1b, CCl2, KC)” value is listed as “decreased expression of kidney proinflammatory genes”. Further, the “plasma MCP-1 concentration” value in assay [2] (plasma 24 hours post-surgery, ELISA) is recorded as “improved the plasma MCP-1 levels”. Further, the survival entry in assay [2] (survival over 24 hours) is “improved the animals' survival rate”.

For the origin of these results see patent US20240109853A1 (Shanghai Yao Yuan Biotechnology Co., Ltd., priority 2020, published 2024).
